Results published in patent publication US20240209028A1, “CNP COMPOUNDS” (priority 2022, published 2024).
Starred links: 1 amine or outer side, 2 acyl side, 3 side chain; linkers in the order of their positions; H or OH if unused. Positions of bridges follow the written chain, without caps; N, C: chain ends. Residues, ends and D or L forms follow the SMILES beside them. *: point of attachment. C18 diacid = O=C(O)CCCCCCCCCCCCCCCCC(=O)*; γGlu = O=C(O)[C@H](CCC(=O)[*:2])N[*:1]; AEEA = NCCOCCOCC(=O)O

target: T1, human natriuretic peptide receptor 2 (hNPR2) (Homo sapiens, UniProt P20594); test: In vitro hNPR2 activity assay (cGMP GloSensor reporter, HEK293); type: cell-based; conditions: potency relative to CNP22 (0065)
T1 construct: expressed in transfected cells; host or cells: HEK293 (ATCC CRL-1573), clone 35, co-transfected with pGloSensor-42F
T1 sequence (P20594 23-1047): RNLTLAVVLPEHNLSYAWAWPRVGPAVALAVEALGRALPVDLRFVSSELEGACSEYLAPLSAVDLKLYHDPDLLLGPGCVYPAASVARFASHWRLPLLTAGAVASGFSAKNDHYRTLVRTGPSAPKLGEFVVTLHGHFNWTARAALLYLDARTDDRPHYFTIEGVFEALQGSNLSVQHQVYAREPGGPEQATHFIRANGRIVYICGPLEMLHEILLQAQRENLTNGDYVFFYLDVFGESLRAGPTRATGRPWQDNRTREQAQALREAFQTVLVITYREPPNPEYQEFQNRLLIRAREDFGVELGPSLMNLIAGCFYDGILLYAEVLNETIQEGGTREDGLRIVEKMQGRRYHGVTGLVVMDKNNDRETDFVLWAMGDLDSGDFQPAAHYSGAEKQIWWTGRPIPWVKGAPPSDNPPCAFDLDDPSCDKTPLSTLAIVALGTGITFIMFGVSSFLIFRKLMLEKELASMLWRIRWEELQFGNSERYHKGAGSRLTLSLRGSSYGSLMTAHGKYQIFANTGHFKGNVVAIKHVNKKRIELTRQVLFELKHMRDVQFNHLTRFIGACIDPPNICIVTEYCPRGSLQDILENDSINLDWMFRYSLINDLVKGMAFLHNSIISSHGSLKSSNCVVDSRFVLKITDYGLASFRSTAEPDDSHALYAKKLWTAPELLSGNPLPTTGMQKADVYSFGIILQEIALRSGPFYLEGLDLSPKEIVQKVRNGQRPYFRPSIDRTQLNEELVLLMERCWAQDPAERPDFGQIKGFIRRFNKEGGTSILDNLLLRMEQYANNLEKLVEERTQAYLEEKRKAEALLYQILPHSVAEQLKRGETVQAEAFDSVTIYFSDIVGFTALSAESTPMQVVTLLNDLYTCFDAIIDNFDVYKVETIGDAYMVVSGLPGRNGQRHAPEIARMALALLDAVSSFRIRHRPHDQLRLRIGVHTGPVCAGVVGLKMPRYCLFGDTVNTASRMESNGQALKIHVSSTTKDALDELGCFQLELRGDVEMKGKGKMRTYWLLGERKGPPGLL
Outline: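 Potency is the EC50 from a four-parameter logistic fit, also expressed relative to the in-plate CNP22 control (×100), with at least two replicates. Compounds (ten concentrations, […], HSA-free diluent with 1% OVA, 0.01% Tween20) were incubated 30 min at 37 °C on HEK293 cells co-expressing hNPR2 and a GloSensor cGMP luciferase. Luminescence detected with Bright-Glo.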

| Compound | hNPR2 0% HSA. [EC50% rel CNP] |
| --- | --- |
| CC[C@H](C)[C@@H]1NC(=O)[C@H](CCCNC(=N)N)NC(=O)[C@H](CC(=O)O)NC(=O)[C@H](CC(C)C)NC(=O)[C@@H]2CCCN2C(=O)[C@H](CC(C)C)NC(=O)CNC(=O)[C@H](Cc2ccccc2)NC(=O)[C@@H](NC(=O)CNC(=O)[C@H](CO)NC(=O)[C@H](CO)NC(=O)[C@H](CC(C)C)NC(=O)CNC(=O)[C@H](CCCCN)NC(=O)[C@H](CCCCN)NC(=O)[C@H](CCC(N)=O)NC(=O)[C@H](C)NC(=O)CNC(=O)[C@H](Cc2c[nH]cn2)NC(=O)[C@H](CCC(=O)O)NC(=O)COCCOCCNC(=O)COCCOCCNC(=O)CC[C@H](NC(=O)CCCCCCCCCCCCCCCCC(=O)O)C(=O)O)CSSC[C@@H](C(=O)O)NC(=O)CNC(=O)[C@H](CC(C)C)NC(=O)CNC(=O)[C@H](CO)NC(=O)[C@H](CC(C)C)NC(=O)[C@H](CO)NC(=O)CNC1=O [compound 1310] ({C18 diacid-γGlu-AEEA-AEEA}-EHGAQKKGLSSGCFGLPLDRIGSLSGLGC-OH; disulfide 13-29) | 10.4% |
| CC[C@H](C)[C@@H]1NC(=O)[C@H](CCCNC(=N)N)NC(=O)[C@H](CC(=O)O)NC(=O)[C@H](CC(C)C)NC(=O)[C@@H]2CCCN2C(=O)[C@H](CC(C)C)NC(=O)CNC(=O)[C@H](Cc2ccccc2)NC(=O)[C@@H](NC(=O)CNC(=O)[C@H](CO)NC(=O)[C@H](CO)NC(=O)[C@@H](NC(=O)CNC(=O)[C@@H](NC(=O)[C@H](Cc2c[nH]cn2)NC(=O)[C@H](CCC(N)=O)NC(=O)[C@H](C)NC(=O)CNC(=O)[C@H](Cc2c[nH]cn2)NC(=O)[C@H](Cc2ccc(O)cc2)NC(=O)[C@H](CCCCN)NC(=O)[C@H](CCCNC(=N)N)NC(=O)[C@H](C)NC(=O)COCCOCCNC(=O)COCCOCCNC(=O)CC[C@H](NC(=O)CCCCCCCCCCCCCCCCC(=O)O)C(=O)O)[C@@H](C)O)C(C)C)CSSC[C@@H](C(=O)O)NC(=O)CNC(=O)[C@H](CC(C)C)NC(=O)CNC(=O)[C@H](CO)NC(=O)[C@H](CC(C)C)NC(=O)[C@H](CO)NC(=O)CNC1=O [compound 1351] ({C18 diacid-γGlu-AEEA-AEEA}-ARKYHGAQHTGVSSGCFGLPLDRIGSLSGLGC-OH; disulfide 16-32) | 55.2% |
| CC[C@H](C)[C@@H]1NC(=O)[C@H](CCCNC(=N)N)NC(=O)[C@H](CC(=O)O)NC(=O)[C@H](CC(C)C)NC(=O)[C@@H]2CCCN2C(=O)[C@H](CC(C)C)NC(=O)CNC(=O)[C@H](Cc2ccccc2)NC(=O)[C@@H](NC(=O)CNC(=O)[C@H](CO)NC(=O)[C@H](CO)NC(=O)[C@@H](NC(=O)CNC(=O)[C@@H](NC(=O)[C@H](CCCCN)NC(=O)[C@H](CCC(N)=O)NC(=O)[C@H](C)NC(=O)CNC(=O)[C@H](Cc2c[nH]cn2)NC(=O)[C@H](Cc2ccc(O)cc2)NC(=O)COCCOCCNC(=O)COCCOCCNC(=O)COCCOCCNC(=O)CC[C@H](NC(=O)CCCCCCCCCCCCCCCCC(=O)O)C(=O)O)[C@@H](C)O)C(C)C)CSSC[C@@H](C(=O)O)NC(=O)CNC(=O)[C@H](CC(C)C)NC(=O)CNC(=O)[C@H](CO)NC(=O)[C@H](CC(C)C)NC(=O)[C@H](CO)NC(=O)CNC1=O [compound 1352] ({C18 diacid-γGlu-AEEA-AEEA-AEEA}-YHGAQKTGVSSGCFGLPLDRIGSLSGLGC-OH; disulfide 13-29) | 38.6% |
| CC[C@H](C)[C@@H]1NC(=O)[C@H](CCCNC(=N)N)NC(=O)[C@H](CC(=O)O)NC(=O)[C@H](CC(C)C)NC(=O)[C@@H]2CCCN2C(=O)[C@H](CC(C)C)NC(=O)CNC(=O)[C@H](Cc2ccccc2)NC(=O)[C@@H](NC(=O)CNC(=O)[C@H](CO)NC(=O)[C@H](CO)NC(=O)[C@@H](NC(=O)CNC(=O)[C@@H](NC(=O)[C@H](CCCCN)NC(=O)[C@H](CCC(N)=O)NC(=O)[C@H](C)NC(=O)CNC(=O)[C@H](Cc2c[nH]cn2)NC(=O)[C@H](Cc2ccc(O)cc2)NC(=O)[C@H](CCCCN)NC(=O)[C@H](CCCNC(=N)N)NC(=O)[C@H](C)NC(=O)COCCOCCNC(=O)COCCOCCNC(=O)CC[C@H](NC(=O)CC[C@H](NC(=O)CCCCCCCCCCCCCCCCC(=O)O)C(=O)O)C(=O)O)[C@@H](C)O)C(C)C)CSSC[C@@H](C(=O)O)NC(=O)CNC(=O)[C@H](CC(C)C)NC(=O)CNC(=O)[C@H](CO)NC(=O)[C@H](CC(C)C)NC(=O)[C@H](CO)NC(=O)CNC1=O [compound 1354] ({C18 diacid-γGlu-γGlu-AEEA-AEEA}-ARKYHGAQKTGVSSGCFGLPLDRIGSLSGLGC-OH; disulfide 16-32) | 27.5% |
| CC[C@H](C)[C@@H]1NC(=O)[C@H](CCCNC(=N)N)NC(=O)[C@H](CC(=O)O)NC(=O)[C@H](CC(C)C)NC(=O)[C@@H]2CCCN2C(=O)[C@H](CC(C)C)NC(=O)CNC(=O)[C@H](Cc2ccccc2)NC(=O)[C@@H](NC(=O)CNC(=O)[C@H](CO)NC(=O)[C@H](CO)NC(=O)[C@H](CC(C)C)NC(=O)CNC(=O)[C@H](CCCCN)NC(=O)[C@H](CCCCN)NC(=O)[C@H](CCC(N)=O)NC(=O)[C@H](C)NC(=O)CNC(=O)[C@H](CCCCN)NC(=O)[C@H](Cc2ccc(O)cc2)NC(=O)COCCOCCNC(=O)COCCOCCNC(=O)COCCOCCNC(=O)CC[C@H](NC(=O)CC[C@H](NC(=O)CCCCCCCCCCCCCCCCC(=O)O)C(=O)O)C(=O)O)CSSC[C@@H](C(=O)O)NC(=O)CNC(=O)[C@H](CC(C)C)NC(=O)CNC(=O)[C@H](CO)NC(=O)[C@H](CC(C)C)NC(=O)[C@H](CO)NC(=O)CNC1=O [compound 1356] ({C18 diacid-γGlu-γGlu-AEEA-AEEA-AEEA}-YKGAQKKGLSSGCFGLPLDRIGSLSGLGC-OH; disulfide 13-29; C-terminus assumed) | 22.4% |
| CC[C@H](C)[C@@H]1NC(=O)[C@H](CCCNC(=N)N)NC(=O)[C@H](CC(=O)O)NC(=O)[C@H](CC(C)C)NC(=O)[C@@H]2CCCN2C(=O)[C@H](CC(C)C)NC(=O)CNC(=O)[C@H](Cc2ccccc2)NC(=O)[C@@H](NC(=O)CNC(=O)[C@H](CCCCN)NC(=O)[C@H](CO)NC(=O)[C@H](CC(C)C)NC(=O)CNC(=O)[C@H](CCCCN)NC(=O)[C@H](CCCCN)NC(=O)[C@H](CCC(N)=O)NC(=O)[C@H](C)NC(=O)CNC(=O)[C@H](CCC(=O)O)NC(=O)[C@H](Cc2ccc(O)cc2)NC(=O)COCCOCCNC(=O)COCCOCCNC(=O)COCCOCCNC(=O)COCCOCCNC(=O)CC[C@H](NC(=O)CCCCCCCCCCCCCCCCC(=O)O)C(=O)O)CSSC[C@@H](C(=O)O)NC(=O)CNC(=O)[C@H](CC(C)C)NC(=O)CNC(=O)[C@H](CO)NC(=O)[C@H](CC(C)C)NC(=O)[C@H](CO)NC(=O)CNC1=O [compound 1375] ({C18 diacid-γGlu-AEEA-AEEA-AEEA-AEEA}-YEGAQKKGLSKGCFGLPLDRIGSLSGLGC-OH; disulfide 13-29; C-terminus assumed) | 16.2% |
| CC[C@H](C)[C@@H]1NC(=O)[C@H](CCCNC(=N)N)NC(=O)[C@H](CC(=O)O)NC(=O)[C@H](CC(C)C)NC(=O)[C@@H]2CCCN2C(=O)[C@H](CC(C)C)NC(=O)CNC(=O)[C@H](Cc2ccccc2)NC(=O)[C@@H](NC(=O)CNC(=O)[C@H](CCCCN)NC(=O)[C@H](CO)NC(=O)CNC(=O)CNC(=O)[C@H](CCCCN)NC(=O)[C@H](CCCCN)NC(=O)[C@H](CCC(N)=O)NC(=O)[C@H](C)NC(=O)CNC(=O)[C@H](CCC(=O)O)NC(=O)[C@H](Cc2ccc(O)cc2)NC(=O)COCCOCCNC(=O)COCCOCCNC(=O)CC[C@H](NC(=O)CCCCCCCCCCCCCCCCC(=O)O)C(=O)O)CSSC[C@@H](C(=O)O)NC(=O)CNC(=O)[C@H](CC(C)C)NC(=O)CNC(=O)[C@H](CO)NC(=O)[C@H](CC(C)C)NC(=O)[C@H](CO)NC(=O)CNC1=O [compound 1377] ({C18 diacid-γGlu-AEEA-AEEA}-YEGAQKKGGSKGCFGLPLDRIGSLSGLGC-OH; disulfide 13-29) | 28.2% |
